Measured values published in patent US7122193B1 (priority 1994, dated 2006).
Where two headings read alike, the source gives them in different places. Peptide text beside a SMILES is read from it.

Tests used:
MAb 11 × 2 = format: binding, mouse
[1] = target: MAb 4 × 10 (IgG1) anti-L peptide
[2] = tested on: IgG antibodies of sera of patients suffering from DLE and SS; format: binding, human
Description: FIG. 6: ELISA reactivity of serum samples originating from patients suffering from DLE and SS with the parent peptide and the analogue RIb 277–291 of Ro52. The sera of the patients are diluted to 1:1,000. Only the antibody activity of the sub-class IgG is measured. The median values of the optical density are indicated. The broken line represents the upper limit of the normal population corresponding to the mean value of the optical density of 20 normal human sera+2 SD (standard deviation) (0.30 OD units).
Sera of female F1 lupous mice (NZB/W) were obtained from S. Batsford (Freibourg, Germany). The human sera originate from patients suffering from disseminated lupus erythematosus (DLE) and Sjögren's syndrome (SS). They were obtained from D. A. Isenberg (London), O. Meyer (Paris) and G. Fournié (Toulouse). The sera of healthy volunteers were obtained from J. L. Pasquali (Strasbourg).
The sera of lupous mice were tested by ELISA as described previously (Benkirane, N., Friede, M., Guichard, G., briand, J. P., Van Regenmortel, M. H. V. and Muller, S. (1993) Antigenicity and immunogenicity of modified synthetic peptides containing D-amino acid residues. J. Biol. Chem., 268: 26279–26285). Only the antibodies of isotype IgG were tested. […] Clin. Exp. Immunol., 95: 397–407) except in the case of the peptide Ro52 277–291, where sensitization of the ELISA plates was carried out at 4° C. instead of 37° C. (see the reasons above). The threshold value for positivity of each test, including that of tests based on the use of retro-inverso peptide analogues, was determined using 20 sera of healthy individuals. The antigenic activity of the peptides is also measured by ELISA using a liquid phase inhibition test.
The 30 sera (positive or negative with respect to the L peptide) were tested in parallel with the RIa and RIb analogues. It was shown that all the sera positive with the L peptide were also positive with the retro-inverso peptides. […] The mean optical density corresponding to the arithmetic mean of all the optical density values, including the values below the threshold line of positivity, is 0.21 (standard deviation 0.25) and 0.51 (standard deviation 0.62) with the L and RIb peptides respectively.

MAb 4 × 11 = format: binding, mouse
MAb 11 × 7 [3] = format: binding, mouse
[4] = target: MAb 4 × 8 (IgG1) anti-L peptide
[5] = target: MAb 4 × 11 (IgG1) anti-L peptide
BALB/c mice = conditions: mouse, in vivo
MAb 11 × 7 [6] = format: binding, mouse; remark: listed apart in the source
[7] = target: MAb 11 × 2 (IgG3) anti-D peptide
[8] = tested on: IgG antibodies of sera of patients suffering from DLE and SS; format: binding, human; remark: listed apart in the source
in vitro = conditions: pH 7.4

## CC[C@H](C)[C@H](NC(=O)CNC(=O)CNC(=O)[C@@H](N)CS)C(=O)N[C@@H](CCCNC(=N)N)C(=O)NCC(=O)N[C@@H](CCC(=O)O)C(=O)N[C@@H](CCCNC(=N)N)C(=O)N[C@@H](C)C(=O)O [L peptide, [H Cys-Gly-Gly]-Ile-Arg-Gly-Glu-Arg-Ala-OH] (H-CGGIRGERA-OH)
MAb 11 × 2
  ELISA (OD) reactivity with the peptides: 2.75 OD
[1]
  Ka (affinity constant at equilibrium): 4,486 ×10^6 M^−1
  ka (association constant): 987 ± 0.7
  kd (dissociation constant): 22 ± 0.2
[2]; 30 sera of DLE and SS patients
  sera of patients tested in which anti-peptide 277–291 antibodies are detected: 17%
[2]; among 30 sera of DLE and SS patients, threshold 0.30 OD units, plates sensitized at 4° C.
  number of sera containing antibodies of the subclass IgG which react with the peptide: 5
[2]; arithmetic mean of all 30 sera, peptide 277–291 of Ro52
  mean optical density: 0.21
MAb 4 × 11
  ELISA (OD) reactivity with the peptides: 1.29 OD
MAb 11 × 7 [3]
  Molar excesses of inhibitor peptide required to inhibit 50% of the bonding between the MAb and D peptide: —* (key: —: cross-reactivity not detectable (up to 250 μg/ml of competition peptide))
[4]
  Ka (affinity constant at equilibrium): 8e+07 M⁻¹
  ka (association constant): 13 ± 0.2
  kd (dissociation constant): 15 ± 0.2
[5]
  BIAcore (Ka M^−1) affinity constant at equilibrium: 3e+06 M⁻¹
  Ka (affinity constant at equilibrium): 3e+06 M⁻¹
  ka (association constant): 3 ± 0.2
  kd (dissociation constant): 100 ± 0.3
trypsin
  bonding of MAb 11×2 to the L peptide in the presence of a non-digested peptide: 220 RU
trypsin; pH 7.4
  time to complete loss of immunological activity on digestion with immobilized trypsin: 10 min
BALB/c mice
  antibody subclasses of the response: the antibodies belong to the IgG1, 2a and 2b subclasses
MAb 11 × 7 [6]
  ELISA (OD) reactivity with the peptides: 0.47 OD
[7]
  BIAcore (Ka M^−1) affinity constant at equilibrium: 2e+06 M⁻¹
  Ka (affinity constant at equilibrium): 2e+06 M⁻¹
  ka (association constant): 2 ± 0.3
  kd (dissociation constant): 100 ± 0.2
[8]
  mean optical density: 0.21
  number of sera which reacted: Six
  percentage of sera which reacted: 30%
In vitro
  half-life: 7 min
